# According to ChEMBL document CHEMBL6127076, “Scaffold hopping-driven optimization for the identification of NLRP3 inhibitors as potential gout therapeutics” (Eur J Med Chem, 2024):
# Calls of active or inactive are those of the source. The calls are words filed in the database; no cut-off is given here.
# Assays:
# [1] = Aqueous solubility of the compound in pH 7.4 PBS buffer; assay type: physicochemical
# [2] = Plasma stability in human plasma assessed as compound remaining measured after 5 mins; assay type: ADME, cell-free; details: read-out: Stability
# [3] = Plasma stability in human plasma assessed as compound remaining measured after 15 mins; assay type: ADME, cell-free; details: read-out: Stability
# [4] = Plasma stability in human plasma assessed as compound remaining measured after 30 mins; assay type: ADME, cell-free; details: read-out: Stability
# [5] = Plasma stability in human plasma assessed as compound remaining measured after 60 mins; assay type: ADME, cell-free; details: read-out: Stability
# [6] = Plasma stability in human plasma assessed as compound remaining measured after 120 mins; assay type: ADME, cell-free; details: read-out: Stability
# [7] = Plasma stability in human plasma assessed as half life; assay type: ADME, cell-free
# [8] = Plasma stability in human plasma assessed as compound remaining measured immediately; assay type: ADME, cell-free; details: read-out: Stability
# [9] = target: T1, Cytochrome P450 1A2 (Homo sapiens, UniProt P05177); assay: Inhibition of CYP1A2 (unknown origin); assay type: ADME
# T1 sequence (P05177 whole entry): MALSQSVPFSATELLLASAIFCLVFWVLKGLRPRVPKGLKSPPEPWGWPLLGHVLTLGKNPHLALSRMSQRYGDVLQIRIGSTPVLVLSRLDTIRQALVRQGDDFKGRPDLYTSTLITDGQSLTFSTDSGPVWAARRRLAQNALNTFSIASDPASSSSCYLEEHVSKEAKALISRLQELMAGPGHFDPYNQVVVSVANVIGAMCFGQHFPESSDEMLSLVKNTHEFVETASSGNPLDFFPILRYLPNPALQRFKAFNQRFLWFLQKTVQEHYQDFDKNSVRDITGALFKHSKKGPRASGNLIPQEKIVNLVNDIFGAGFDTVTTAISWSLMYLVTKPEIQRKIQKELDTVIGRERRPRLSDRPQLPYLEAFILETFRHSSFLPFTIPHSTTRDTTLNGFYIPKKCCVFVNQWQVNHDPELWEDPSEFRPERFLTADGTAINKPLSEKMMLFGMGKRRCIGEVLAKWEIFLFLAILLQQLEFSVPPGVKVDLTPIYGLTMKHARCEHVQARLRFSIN
# [10] = target: Cytochrome P450 2C9 (Homo sapiens, UniProt P11712); assay: Inhibition of CYP2C9 (unknown origin); assay type: ADME
# Cytochrome P450 2C9, sequence (P11712 whole entry): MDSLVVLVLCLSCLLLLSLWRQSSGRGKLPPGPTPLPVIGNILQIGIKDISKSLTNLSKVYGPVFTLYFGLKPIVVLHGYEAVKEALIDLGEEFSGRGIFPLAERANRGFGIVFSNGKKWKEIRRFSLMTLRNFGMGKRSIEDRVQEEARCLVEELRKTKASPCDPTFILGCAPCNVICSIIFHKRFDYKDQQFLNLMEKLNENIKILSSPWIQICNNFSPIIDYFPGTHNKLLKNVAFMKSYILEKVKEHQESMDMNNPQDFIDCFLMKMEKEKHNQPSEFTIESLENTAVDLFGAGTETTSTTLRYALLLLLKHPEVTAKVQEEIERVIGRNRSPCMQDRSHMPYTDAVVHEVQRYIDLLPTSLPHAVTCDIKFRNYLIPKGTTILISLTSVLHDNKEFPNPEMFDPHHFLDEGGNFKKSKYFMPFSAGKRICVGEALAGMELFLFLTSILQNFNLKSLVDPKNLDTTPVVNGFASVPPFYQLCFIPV
# [11] = target: Cytochrome P450 2C19 (Homo sapiens, UniProt P33261); assay: Inhibition of CYP2C19 (unknown origin); assay type: ADME
# Cytochrome P450 2C19, sequence (P33261 whole entry): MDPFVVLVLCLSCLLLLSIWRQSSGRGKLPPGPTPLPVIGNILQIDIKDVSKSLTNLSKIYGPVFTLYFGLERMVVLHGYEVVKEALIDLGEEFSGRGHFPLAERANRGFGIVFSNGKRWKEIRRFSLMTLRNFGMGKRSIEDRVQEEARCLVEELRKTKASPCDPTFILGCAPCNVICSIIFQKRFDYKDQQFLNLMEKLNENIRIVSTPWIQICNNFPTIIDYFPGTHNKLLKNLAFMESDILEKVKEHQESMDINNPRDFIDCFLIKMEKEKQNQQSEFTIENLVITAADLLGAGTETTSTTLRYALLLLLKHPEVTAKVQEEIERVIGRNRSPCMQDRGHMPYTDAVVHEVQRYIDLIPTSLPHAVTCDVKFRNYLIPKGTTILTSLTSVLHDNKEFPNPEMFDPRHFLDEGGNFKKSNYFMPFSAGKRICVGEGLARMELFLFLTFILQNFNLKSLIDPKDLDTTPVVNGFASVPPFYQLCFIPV
# [12] = target: T2, Cytochrome P450 3A4 (Homo sapiens, UniProt P08684); assay: Inhibition of CYP3A4 (unknown origin) using midazolam as substrate; assay type: ADME
# T2 sequence (P08684 whole entry): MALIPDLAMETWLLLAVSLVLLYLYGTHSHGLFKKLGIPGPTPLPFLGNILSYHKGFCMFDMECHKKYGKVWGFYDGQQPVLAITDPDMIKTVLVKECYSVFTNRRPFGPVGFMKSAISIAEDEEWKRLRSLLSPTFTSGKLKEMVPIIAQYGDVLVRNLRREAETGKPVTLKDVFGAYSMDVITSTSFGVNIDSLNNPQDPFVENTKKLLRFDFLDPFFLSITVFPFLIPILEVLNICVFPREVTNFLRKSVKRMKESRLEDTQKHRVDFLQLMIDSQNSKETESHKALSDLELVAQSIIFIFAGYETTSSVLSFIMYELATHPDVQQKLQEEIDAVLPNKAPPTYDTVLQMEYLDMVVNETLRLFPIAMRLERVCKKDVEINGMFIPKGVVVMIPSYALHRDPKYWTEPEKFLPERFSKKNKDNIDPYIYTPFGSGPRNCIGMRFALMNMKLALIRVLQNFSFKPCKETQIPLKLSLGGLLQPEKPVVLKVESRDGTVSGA
# [13] = target: T2, Cytochrome P450 3A4; assay: Inhibition of CYP3A4 (unknown origin) using testosterone as substrate; assay type: ADME
# [14] = target: Cytochrome P450 2D6 (Homo sapiens, UniProt P10635); assay: Inhibition of CYP2D6 (unknown origin); assay type: ADME
# Cytochrome P450 2D6, sequence (P10635 whole entry): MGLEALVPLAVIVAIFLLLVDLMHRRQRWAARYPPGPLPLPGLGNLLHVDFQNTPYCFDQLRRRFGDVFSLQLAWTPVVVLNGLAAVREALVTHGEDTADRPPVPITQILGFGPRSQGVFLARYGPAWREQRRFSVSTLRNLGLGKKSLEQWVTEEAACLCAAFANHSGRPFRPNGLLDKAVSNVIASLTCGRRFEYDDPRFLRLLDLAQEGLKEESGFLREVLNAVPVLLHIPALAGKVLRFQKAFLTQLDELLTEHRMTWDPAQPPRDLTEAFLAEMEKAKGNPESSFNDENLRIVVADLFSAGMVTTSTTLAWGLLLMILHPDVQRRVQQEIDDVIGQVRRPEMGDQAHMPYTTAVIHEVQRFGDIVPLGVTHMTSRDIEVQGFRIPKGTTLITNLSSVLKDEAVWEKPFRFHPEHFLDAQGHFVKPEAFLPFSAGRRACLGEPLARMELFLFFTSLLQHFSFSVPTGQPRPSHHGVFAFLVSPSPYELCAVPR
# [15] = Inhibition of NLRP3 inflammasome pathway in human THP-1 cells assessed as inhibition of LPS/MSU-induced IL-1beta secretion
# [16] = test system: HEK-293T; assay: Cytotoxicity against human HEK293T cells assessed as cell viability at 50 uM measured after 24 hrs by CCK8 assay; assay type: toxicity, cell-based
# [17] = test system: Mus musculus; assay: Anti-inflammatory activity against MSU-induced peritonitis mouse model assessed as reduction in IL-1beta secretion in peritoneal cavity at 10 mg/kg, treated by gavage 30 mins before MSU induction measured after 6 hrs modeling by ELISA; assay type: functional, organism-based
smiles,measurement,setting,value
COc1ccc(N2C(=O)/C(=C/c3ccccc3C(F)(F)F)SC2=S)cc1,solubility,[1],0.012 µM
same,remaining at 5 min,[2],112%
same,remaining at 0.25 h,[3],106%
same,remaining at 0.5 h,[4],23.9%
same,remaining at 1 h,[5],4.34%
same,remaining at 2 h,[6],3.67%
same,half-life,[7],0.338 h
same,remaining at 0 min,[8],100%
same,IC50,[9],5.2 µM
same,IC50,[10],4.65 µM
same,IC50,[11],6.87 µM
same,IC50,[12],> 10 µM
same,IC50,[13],> 10 µM
same,IC50,[14],> 10 µM
COc1ccc(N2C(=O)C(C)(C)N(Cc3ccc(Br)c(C)c3)C2=S)cc1,IC50,[15],10.1 µM
same,Activity,[16],Toxic
same,solubility,[1],0.032 µM
same,remaining at 5 min,[2],99.2%
same,remaining at 0.25 h,[3],96.6%
same,remaining at 0.5 h,[4],104%
same,remaining at 1 h,[5],105%
same,remaining at 2 h,[6],97.3%
same,half-life,[7],299 h
same,remaining at 0 min,[8],100%
same,IC50,[9],> 100 µM
same,IC50,[10],6.15 µM
same,IC50,[11],1.4 µM
same,IC50,[12],> 10 µM
same,IC50,[13],> 10 µM
same,IC50,[14],> 10 µM
COc1ccc(N2C(=O)C(C)(C)N(C(=O)c3ccccc3C(F)(F)F)C2=S)cc1,IC50,[15],> 50 µM
CC(C)(C)c1ccc(N2C(=O)C(C)(C)N(Cc3ccc(C(=O)O)cc3)C2=S)cc1,IC50,[15],> 20 µM
COc1ccc(N2C(=O)C(C)(C)N(Cc3ccc(C)cc3)C2=S)cc1,IC50,[15],> 20 µM
COc1ccc(N2C(=O)C(C)(C)N(Cc3ccc(C(C)C)cc3)C2=S)cc1,IC50,[15],15.7 µM
CC(C)[N+](C)(CCOC(=O)C1c2ccccc2Oc2ccccc21)C(C)C [PROPANTHELINE],remaining at 5 min,[2],88%
same,remaining at 0.25 h,[3],58.5%
same,remaining at 0.5 h,[4],37.4%
same,remaining at 1 h,[5],10.7%
same,remaining at 2 h,[6],2.91%
same,half-life,[7],0.387 h
CC(C)NCC(O)COc1cccc2ccccc12 (stereo not given) [PROPRANOLOL],solubility,[1],91.2 µM
CC1(C)C(=O)N(c2cccnc2)C(=S)N1Cc1ccc(S(N)(=O)=O)c(F)c1,IC50,[15],> 20 µM
COc1ccc(N2C(=O)C(C)(C)N(Cc3ccc(-c4ccccc4C#N)cc3)C2=S)cc1,IC50,[15],> 20 µM
Cc1ccc(CN2C(=S)N(c3ccc(C(C)(C)C)cc3)C(=O)C2(C)C)cc1C,IC50,[15],4.3 µM
same,Activity,[16],Toxic
same,solubility,[1],0.089 µM
same,remaining at 5 min,[2],99.8%
same,remaining at 0.25 h,[3],103%
same,remaining at 0.5 h,[4],102%
same,remaining at 1 h,[5],113%
same,remaining at 2 h,[6],93.6%
same,half-life,[7],32.4 h
same,remaining at 0 min,[8],100%
same,IC50,[9],> 100 µM
same,IC50,[10],> 10 µM
same,IC50,[11],5.64 µM
same,IC50,[12],> 10 µM
same,IC50,[13],> 10 µM
same,IC50,[14],> 10 µM
Cc1ccc(CN2C(=S)N(c3cccc(OCc4ccccc4)c3)C(=O)C2(C)C)cc1C,IC50,[15],> 20 µM
COc1ccc(CN2C(=S)N(c3ccc(C(C)(C)C)cc3)C(=O)C2(C)C)cc1F,IC50,[15],13.9 µM
CC(C)(C)c1ccc(N2C(=O)C(C)(C)N(Cc3ccc(C#N)c(Cl)c3)C2=S)cc1,IC50,[15],> 20 µM
COc1ccc(N2C(=O)C(C)(C)N(Cc3ccccc3C(F)(F)F)C2=S)cc1,IC50,[15],29.2 µM
C=C1C(=O)[C@]23[C@H](O)[C@H]1CC[C@H]2[C@@]12CO[C@]3(O)[C@@H](O)[C@@H]1C(C)(C)CC[C@@H]2O [ORIDONIN],IC50,[15],1.9 µM
CC1(C)C(=O)N(c2ccc(Oc3ccccc3)cc2)C(=S)N1Cc1ccc(S(N)(=O)=O)c(F)c1,IC50,[15],5.3 µM
same,Activity,[16],Toxic
same,solubility,[1],2.56 µM
same,remaining at 5 min,[2],97.2%
same,remaining at 0.25 h,[3],101%
same,remaining at 0.5 h,[4],92.3%
same,remaining at 1 h,[5],101%
same,remaining at 2 h,[6],93.3%
same,remaining at 0 min,[8],100%
same,IC50,[9],> 100 µM
same,IC50,[10],7.73 µM
same,IC50,[11],4.43 µM
same,IC50,[12],> 10 µM
same,IC50,[13],> 10 µM
same,IC50,[14],> 10 µM
CC1(C)C(=O)N(c2cc(C(F)(F)F)cc(C(F)(F)F)c2)C(=S)N1Cc1ccc(S(N)(=O)=O)c(F)c1,IC50,[15],8.3 µM
same,Activity,[16],Toxic
same,solubility,[1],14 µM
same,remaining at 5 min,[2],91.3%
same,remaining at 0.25 h,[3],98.8%
same,remaining at 0.5 h,[4],93.3%
same,remaining at 1 h,[5],100%
same,remaining at 2 h,[6],91.8%
same,remaining at 0 min,[8],100%
same,IC50,[9],> 100 µM
same,IC50,[10],10.2 µM
same,IC50,[11],> 10 µM
same,IC50,[12],> 10 µM
same,IC50,[13],> 10 µM
same,IC50,[14],> 10 µM
CC(C)(O)c1coc(S(=O)(=O)NC(=O)Nc2c3c(cc4c2CCC4)CCC3)c1,Activity,[17],Active
COc1ccc(N2C(=O)C(C)(C)N(Cc3cccc(C(F)(F)F)c3)C2=S)cc1,IC50,[15],> 20 µM
COc1ccc(N2C(=O)C(C)(C)N(Cc3ccc(C(F)(F)F)cc3)C2=S)cc1,IC50,[15],13 µM
COc1ccc(N2C(=O)C(C)(C)N(Cc3ccc(C)c(C)c3)C2=S)cc1,IC50,[15],6.9 µM
same,Activity,[16],Toxic
same,solubility,[1],0.017 µM
same,remaining at 5 min,[2],98.9%
same,remaining at 0.25 h,[3],105%
same,remaining at 0.5 h,[4],96.2%
same,remaining at 1 h,[5],102%
same,remaining at 2 h,[6],102%
same,remaining at 0 min,[8],100%
same,IC50,[9],> 100 µM
same,IC50,[10],4.57 µM
same,IC50,[11],2.95 µM
same,IC50,[12],> 10 µM
same,IC50,[13],> 10 µM
same,IC50,[14],> 10 µM
Cc1ccc(CN2C(=S)N(c3ccc(C#N)c(C(F)(F)F)c3)C(=O)C2(C)C)cc1C,IC50,[15],> 20 µM
CCCSc1ccc2nc(NC(=O)OC)[nH]c2c1 [ALBENDAZOLE],solubility,[1],1.65 µM
CC(C)(C)c1ccc(N2C(=O)C(C)(C)N(Cc3ccc4ncoc4c3)C2=S)cc1,IC50,[15],> 20 µM
COc1cccc(N2C(=O)C(C)(C)N(Cc3ccc(C)c(C)c3)C2=S)c1,IC50,[15],> 20 µM
c1ccc(-c2nc[nH]c2-c2ccccc2)cc1,solubility,[1],13.6 µM
COc1ccccc1N1C(=O)C(C)(C)N(Cc2ccc(C)c(C)c2)C1=S,IC50,[15],> 20 µM
CC(C)(C)c1ccc(N2C(=O)C(C)(C)N(Cc3ccc(S(N)(=O)=O)c(F)c3)C2=S)cc1,IC50,[15],6.4 µM
same,Activity,[16],Toxic
same,solubility,[1],19.3 µM
same,remaining at 5 min,[2],96.7%
same,remaining at 0.25 h,[3],89.8%
same,remaining at 0.5 h,[4],98.2%
same,remaining at 1 h,[5],100%
same,remaining at 2 h,[6],82.5%
same,half-life,[7],10 h
same,remaining at 0 min,[8],100%
same,IC50,[9],> 100 µM
same,IC50,[10],> 10 µM
same,IC50,[11],> 10 µM
same,IC50,[12],> 10 µM
same,IC50,[13],> 10 µM
same,IC50,[14],> 10 µM
COc1ccc(N2C(=O)C(C)(C)N(Cc3cc(C(F)(F)F)ccc3C(F)(F)F)C2=S)cc1,IC50,[15],> 20 µM
